Data on one compound can be found in patent publication US11078496B2, “System for F-box hormone receptor regulated protein expression in mammalian cells” (ICAHN SCHOOL OF MEDICINE AT MOUNT SINAI, priority 2016, dated 2021).

The target in the experiment is T1, AID^47-NANOG (A-NANOG) (UniProt P93830+Q7XVM8).
T1 construct: (encoding NP_001052659); 47-amino acid segment that corresponds to amino acids 63-109 of A. thaliana IAA17; expressed in transfected cells; host or cells: CCE mESCs (lentiviral pRAIDRS)
T1 sequence (Q7XVM8 whole entry, the tested form may be a part): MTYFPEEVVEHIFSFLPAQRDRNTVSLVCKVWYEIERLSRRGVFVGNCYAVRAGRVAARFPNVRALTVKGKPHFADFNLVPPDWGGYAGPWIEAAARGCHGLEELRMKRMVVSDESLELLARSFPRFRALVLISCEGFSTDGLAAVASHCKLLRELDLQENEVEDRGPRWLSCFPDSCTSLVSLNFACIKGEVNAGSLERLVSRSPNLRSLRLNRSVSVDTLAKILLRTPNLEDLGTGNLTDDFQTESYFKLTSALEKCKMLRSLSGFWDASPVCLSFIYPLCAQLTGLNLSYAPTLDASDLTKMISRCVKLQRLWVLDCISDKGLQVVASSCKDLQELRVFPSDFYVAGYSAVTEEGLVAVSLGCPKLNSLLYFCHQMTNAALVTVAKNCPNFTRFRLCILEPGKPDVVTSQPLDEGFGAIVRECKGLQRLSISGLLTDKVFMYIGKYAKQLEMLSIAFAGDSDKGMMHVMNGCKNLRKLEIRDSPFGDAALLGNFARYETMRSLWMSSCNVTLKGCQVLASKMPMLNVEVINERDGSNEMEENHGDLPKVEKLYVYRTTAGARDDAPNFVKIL
T1 sequence (P93830 63-109): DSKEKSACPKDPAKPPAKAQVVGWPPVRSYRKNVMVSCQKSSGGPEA
Description: Auxin-dependent depletion of A-NANOG in mESCs (western blot). The class given is cell-based, mouse. The protocol:
FIGS. 3A-3D illustrate an auxin-degradable NANOG rescue system in mESCs. CCE mESCs were infected with pRAIDRS AID^47-NANOG (A-NANOG) or GFP-AID^47 (“GFP-A”) and selected clones with ESC morphology were analyzed for the effect of auxin (“IAA”) treatment. FIG. 3A is a western blot analysis depicting endogenous NANOG (*) and A-NANOG (**) in parental mESCs, and in the indicated clones. β-Actin serves as a loading control. Experiment was repeated three times and a representative blot is presented. FIG. 3B are images of mESC clones plated at low density, grown in the presence of ethanol (“Con”) or auxin (“IAA”) for 3-4 days and assayed for AP activity. GFP-A mESCs reached the desired confluency a day earlier and therefore the images were taken on different days. FIG. 3C are bright-field images showing representative morphology of A-NANOG mESCs following 3 days of ethanol (“Con”) or auxin (“IAA”) treatment (upper part) and merged bright-field and GFP fluorescence images of ethanol or auxin-treated GFP-A mESCs (lower part). Scale bars, 100 μm. […] All cells were subjected to the same concentration of ethanol for the duration of experiment. Quantitative real-time PCR analysis was performed for selected self-renewal and differentiation markers, and normalized expression levels are represented as a heatmap. […] See also FIGS. 4A-4F and FIG. 15. […]
(In general: Immunoblotting shows a protein as a band on a membrane.)

As for `O=C(O)Cc1c[nH]c2ccccc12` [auxin, indole-3-acetic acid], the “depletion of A-NANOG” value (A-NANOG #2 mESCs, 50 μM auxin, 30 minutes, western blot) is recorded as “complete depletion”. Further, the “time for >95% degradation of NANOG” value (pRAIDRS system, auxin-dependent protein depletion) is 20 to 30 min.
